Where two headings read alike, the source gives them in different places.
Tests used:
M9ENL AML cell lines [1] = assay: cells; conditions: Table 5; cell line not given
M9ENL AML cell lines [2] = conditions: for EC50: Table 5, cell line not given; for CC50: read-out: LC50, M9ENL AML cell lines, after 24 hours of drug exposure; for potency relative to parthenolide and MMB: M9 ENL cell lines
AML cell line AML 123009 = conditions: for cytotoxicity relative to PTL: AML 123009, FIG. 6; for EC50: read-out: Viability EC50, AML cell line 123009

CN(C)CC1C(=O)O[C@H]2[C@H]1CC/C(COC(=O)NCCCCCCCCNC(=O)OC/C1=C/CC[C@@]3(C)O[C@H]3[C@H]3OC(=O)C(CN(C)C)[C@@H]3CC1)=C\CC[C@@]1(C)O[C@@H]21 (single isomer, unassigned) [JVM 3-62A]
EC50 (M9ENL AML cell lines [1]): 1.3 µM

CN(C)CC1C(=O)O[C@H]2[C@H]1CC/C(COC(=O)NCCCCCCCCNC(=O)OC/C1=C/CC[C@@]3(C)O[C@H]3[C@H]3OC(=O)C(CN(C)C)[C@@H]3CC1)=C\CC[C@@]1(C)O[C@@H]21 (single isomer, unassigned) [JVM 3-62B]
EC50 (M9ENL AML cell lines [2]): 1.2 µM

C=C1C(=O)O[C@H]2[C@H]1CC/C(COC(=O)OCCC(CCOC(=O)OC/C1=C/CC[C@@]3(C)O[C@H]3[C@H]3OC(=O)C(=C)[C@@H]3CC1)O[Si](C)(C)C(C)(C)C)=C\CC[C@@]1(C)O[C@@H]21 (stereo partly drawn) [BS-3-14]
EC50 (M9ENL AML cell lines [1]): 1.11 µM

C=C1C(=O)O[C@H]2[C@H]1CC/C(COC(=O)NCCC(O)CCNC(=O)OC/C1=C/CC[C@@]3(C)O[C@H]3[C@H]3OC(=O)C(=C)[C@@H]3CC1)=C\CC[C@@]1(C)O[C@@H]21 (stereo partly drawn) [BS-3-24]
EC50 (M9ENL AML cell lines [1]): 9.03 µM

C=C1C(=O)O[C@H]2[C@H]1CC/C(COC(=O)OCCC(CCOC(=O)OC/C1=C/CC[C@@]3(C)O[C@H]3[C@H]3OC(=O)C(=C)[C@@H]3CC1)OCCCCCCCCCCn1cc(CNC(=O)CCCCC3SCC4NC(=O)NC43)nn1)=C\CC[C@@]1(C)O[C@@H]21 (stereo partly drawn) [BS-4-38a]
EC50 (M9ENL AML cell lines [1]): 20 µM

C=C1C(=O)O[C@H]2[C@H]1CC/C(COC(=O)OCCC(CCO)OCCCCCCCCCCn1cc(CNC(=O)CCCCC3SCC4NC(=O)NC43)nn1)=C\CC[C@@]1(C)O[C@@H]21 (stereo partly drawn) [BS-4-38b]
EC50 (M9ENL AML cell lines [1]): 30 µM

CN(C)CC1C(=O)O[C@H]2[C@H]1CC/C(COC(=O)OC/C1=C/CC[C@@]3(C)O[C@H]3[C@H]3OC(=O)C(CN(C)C)[C@@H]3CC1)=C\CC[C@@]1(C)O[C@@H]21 (stereo partly drawn) [JVM 3-55 B]
EC50 (M9ENL AML cell lines [1]): 5.1 µM

C=C1C(=O)OC2C1CCC(COC(=O)NCCCNC(=O)OCC1=CCCC3(C)OC3C3OC(=O)C(=C)C3CC1)=CCCC1(C)OC21 [JVM 3-55, bis(((1aR,7aS,10aS,10bS,E)-1a-Methyl-8-methylene-9-oxo-1a,2,3,6,7,7a,8,9,10a,10b-decahydrooxireno[2′,3′:9,10]cyclodeca[1,2-b]furan-5-yl)methyl)propane-1,3-diyldicarbamate]
CC50 (M9ENL AML cell lines [2]): 0.56 µM

C=C1C(=O)OC2C1CCC(COC(=O)NCCCCCCCNC(=O)OCC1=CCCC3(C)OC3C3OC(=O)C(=C)C3CC1)=CCCC1(C)OC21 [JVM 3-58, bis(((1aR,7aS, 10aS, 10bS, E)-1a-Methyl-8-methylene-9-oxo-1a,2,3,6,7,7a,8,9,10a,10b-decahydrooxireno[2′,3′:9,10]cyclodeca[1,2-b]furan-5-yl)methyl)heptane-1,7-diyldicarbamate]
CC50 (M9ENL AML cell lines [2]): 1.2 µM

C=C1C(=O)OC2C1CCC(COC(=O)NCCCCCCCCCNC(=O)OCC1=CCCC3(C)OC3C3OC(=O)C(=C)C3CC1)=CCCC1(C)OC21 [JVM 3-61, bis(((1aR,7aS, 10aS, 10bS, E)-1a-Methyl-8-methylene-9-oxo-1a,2,3,6,7,7a,8,9,10a, 1b-decahydrooxireno[2′,3′:9,10]cyclodeca[1,2-b]furan-5-yl)methyl)nonane-1,9-diyldicarbamate]
CC50 (M9ENL AML cell lines [2]): 1.8 µM

C=C1C(=O)O[C@H]2[C@H]1CC/C(COC(=O)NCCCCCCCCNCC1C(=O)O[C@H]3[C@H]1CC/C(COC(=O)NCCCCCCCCNC(=O)OC/C1=C/CC[C@@]4(C)O[C@H]4[C@H]4OC(=O)[C@@H](CNCCCCCCCCNC(=O)OC/C5=C/CC[C@@]6(C)O[C@H]6[C@H]6OC(=O)C(=C)[C@@H]6CC5)[C@@H]4CC1)=C\CC[C@@]1(C)O[C@@H]31)=C\CC[C@@]1(C)O[C@@H]21 (stereo partly drawn) [JVM 3-62-1]
EC50 (M9ENL AML cell lines [1]): 1.7 µM

C[C@@]12CC/C=C3\CC[C@@H]4[C@H](OC(=O)[C@H]4CNCCCCCCCCNC[C@@H]4C(=O)O[C@H]5[C@H]4CC/C(=C\CC[C@@]4(C)O[C@@H]54)COC(=O)NCCCCCCCCNC(=O)OC3)[C@@H]1O2 [JVM 3-62-2]
EC50 (M9ENL AML cell lines [1]): 38.1 µM

C=C1C(=O)OC2C1CCC(COC(=O)NCCCCCCNC(=O)OCC1=CCCC3(C)OC3C3OC(=O)C(=C)C3CC1)=CCCC1(C)OC21 [JVM 3-64, bis(((1aR,7aS,10aS,10bS,E)-1a-Methyl-8-methylene-9-oxo-1a,2,3,6,7,7a,8,9,10a,10b-decahydrooxireno[2′,3′:9,10]cyclodeca[1,2-b]furan-5-yl)methyl)hexane-1,6-diyldicarbamate]
CC50 (M9ENL AML cell lines [2]): 0.34 µM

C=C1C(=O)O[C@H]2[C@H]1CC/C(COC(=O)NCCCCCCCCCCNC(=O)OC/C1=C/CC[C@@]3(C)O[C@H]3[C@H]3OC(=O)C(=C)[C@@H]3CC1)=C\CC[C@@]1(C)O[C@@H]21 [JVM 3-65, bis(((1aR,7aS,10aS, 10bS,E)-1a-Methyl-8-methylene-9-oxo-1a,2,3,6,7,7a,8,9,10a,10b-decahydrooxireno[2,3′:9,10]cyclodeca[1,2-b]furan-5-yl)methyl)decane-1,10-diyldicarbamate]
CC50 (M9ENL AML cell lines [2]): 1.6 µM

C=C1C(=O)OC2C1CCC(C(=O)NCCCCCCCCNC(=O)C1=CCCC3(C)OC3C3OC(=O)C(=C)C3CC1)=CCCC1(C)OC21 [JVM 3-78, (1aR,1a′R,4E,4′E,7aS,7a′S, 10aS, 10bS, 10a′S, 10b′S)—N,N′-(octane-1,8-diyl)bis(1a-methyl-8-methylene-9-oxo-1a,2,3,6,7,7a,8,9,10a,10b-decahydrooxireno[2′,3′:9,10]cyclodeca[1,2-b]furan-5-carboxamide)]
potency relative to parthenolide and MMB (M9ENL AML cell lines [2]): more potency than parthenolide and MMB

C=C1C(=O)OC2C1CCC(C(=O)NCCCCCCCCCNC(=O)C1=CCCC3(C)OC3C3OC(=O)C(=C)C3CC1)=CCCC1(C)OC21 [JVM 3-82, (1aR,1a′R,4E,4′E,7aS,7a′S,10aS,10bS,10a′S,10b′S)—N,N′-(nonane-1,9-diyl)bis(1a-methyl-8-methylene-9-oxo-1a,2,3,6,7,7a,8,9,10a,10b-decahydrooxireno[2 ′,3 ′9,10]cyclodeca[1,2-b]furan-5-carboxamide)]
potency relative to parthenolide and MMB (M9ENL AML cell lines [2]): more potency than parthenolide and MMB

C=C1C(=O)O[C@H]2[C@H]1CC/C(C(=O)NCCCCCCCCCCNC(=O)/C1=C/CC[C@@]3(C)O[C@H]3[C@H]3OC(=O)C(=C)[C@@H]3CC1)=C\CC[C@@]1(C)O[C@@H]21 [JVM 3-83, (1aR,1a′R,4E,4′E,7aS,7a′S,10aS, 10bS, 10a′S, 10b′S)—N,N′-(decane-1,10-diyl)bis(1a-methyl-8-methylene-9-oxo-1a,2,3,6,7,7a,8,9,10a,10b-decahydrooxireno[2′,3′:9,10]cyclodeca[1,2-b]furan-5-carboxamide)]
potency relative to parthenolide and MMB (M9ENL AML cell lines [2]): more potency than parthenolide and MMB
EC50 (M9ENL AML cell lines [2]): 2.8 µM
cytotoxicity relative to PTL (AML cell line AML 123009): enhanced cytotoxicity relative to PTL
EC50 (AML cell line AML 123009): 2.8 µM

C=C1C(=O)OC2C1CCC(C(=O)NCCCCCCCNC(=O)C1=CCCC3(C)OC3C3OC(=O)C(=C)C3CC1)=CCCC1(C)OC21 [JVM 3-84, (1aR,1a′R,4E,4′E,7aS,7a′S,10aS,10bS,10a′S,10b′S)—N,N′-(heptane-1,7-diyl)bis(1a-methyl-8-methylene-9-oxo-1a,2,3,6,7,7a,8,9,10a,10b-decahydrooxireno[2′,3′:9,10]cyclodeca[1,2-b]furan-5-carboxamide)]
potency relative to parthenolide and MMB (M9ENL AML cell lines [2]): more potency than parthenolide and MMB

C=C1C(=O)OC2C1CCC(COC(=O)OCCCCOC(=O)OCC1=CCCC3(C)OC3C3OC(=O)C(=C)C3CC1)=CCCC1(C)OC21 [JVM 3-91A, butane-1,4-diylbis(((1aR,7aS,10aS,10bS,E)-1a-methyl-8-methylene-9-oxo-1a,2,3,6,7,7a, 8,9,10a,10b-decahydrooxireno[2′,3′:9,10]cyclodeca[1,2-b]furan-5-yl)methyl)dicarbonate]
EC50 (M9ENL AML cell lines [2]): 0.93 µM
cytotoxicity relative to PTL (AML cell line AML 123009): enhanced cytotoxicity relative to PTL
EC50 (AML cell line AML 123009): 0.93 µM

C=C1C(=O)O[C@H]2[C@H]1CC/C(COC(=O)CC(=O)OC/C1=C/CC[C@@]3(C)O[C@H]3[C@H]3OC(=O)C(=C)[C@@H]3CC1)=C\CC[C@@]1(C)O[C@@H]21 [JVM 3-99, bis(((1aR,7aS,10aS,10bS,E)-1a-methyl-8-methylene-9-oxo-1a,2,3,6,7,7a,8,9,10a, 1b-decahydrooxireno[2′,3′:9,10]cyclodeca[1,2-b]furan-5-yl)methyl)malonate]
EC50 (M9ENL AML cell lines [2]): 1 µM
cytotoxicity relative to PTL (AML cell line AML 123009): enhanced cytotoxicity relative to PTL
EC50 (AML cell line AML 123009): 1 µM

C=C1C(=O)O[C@H]2[C@H]1CC/C(Cn1cc(-c3cccc(-c4cn(C/C5=C/CC[C@@]6(C)O[C@H]6[C@H]6OC(=O)C(=C)[C@@H]6CC5)nn4)c3)nn1)=C\CC[C@@]1(C)O[C@@H]21 [JVM 4-41A]
EC50 (M9ENL AML cell lines [1]): 2.3 µM

C=C1C(=O)O[C@H]2[C@H]1CC/C(Cn1cc(CNCc3cn(C/C4=C/CC[C@@]5(C)O[C@H]5[C@H]5OC(=O)C(=C)[C@@H]5CC4)nn3)nn1)=C\CC[C@@]1(C)O[C@@H]21 [JVM 4-44]
EC50 (M9ENL AML cell lines [1]): 51.6 µM

C=C1C(=O)O[C@H]2[C@H]1CC/C(Cn1cc(CCCc3cn(C/C4=C/CC[C@@]5(C)O[C@H]5[C@H]5OC(=O)C(=C)[C@@H]5CC4)nn3)nn1)=C\CC[C@@]1(C)O[C@@H]21 [JVM 4-51]
EC50 (M9ENL AML cell lines [1]): 4 µM
